Laboratory results from ChEMBL document CHEMBL1154953, “3-Aryl-4-(arylhydrazono)-1H-pyrazol-5-ones: Highly ligand efficient and potent inhibitors of GSK3beta” (Bioorg Med Chem Lett, 2010).

Key:
[1] = target: Glycogen synthase kinase-3 beta (Homo sapiens, UniProt P49841)
Description: Inhibition of GSK3-beta assessed as NADH level after 10 mins by pyruvate kinase/lactate dehydrogenase coupled spectrophotometric assay

[2] = Inhibition of PKA
[3] = target: Proto-oncogene tyrosine-protein kinase Src (Homo sapiens, UniProt P12931); experiment: Inhibition of SRC
[4] = target: Tyrosine-protein kinase JAK2 (Homo sapiens, UniProt O60674); experiment: Inhibition of JAK2
Tyrosine-protein kinase JAK2, sequence (O60674 whole entry): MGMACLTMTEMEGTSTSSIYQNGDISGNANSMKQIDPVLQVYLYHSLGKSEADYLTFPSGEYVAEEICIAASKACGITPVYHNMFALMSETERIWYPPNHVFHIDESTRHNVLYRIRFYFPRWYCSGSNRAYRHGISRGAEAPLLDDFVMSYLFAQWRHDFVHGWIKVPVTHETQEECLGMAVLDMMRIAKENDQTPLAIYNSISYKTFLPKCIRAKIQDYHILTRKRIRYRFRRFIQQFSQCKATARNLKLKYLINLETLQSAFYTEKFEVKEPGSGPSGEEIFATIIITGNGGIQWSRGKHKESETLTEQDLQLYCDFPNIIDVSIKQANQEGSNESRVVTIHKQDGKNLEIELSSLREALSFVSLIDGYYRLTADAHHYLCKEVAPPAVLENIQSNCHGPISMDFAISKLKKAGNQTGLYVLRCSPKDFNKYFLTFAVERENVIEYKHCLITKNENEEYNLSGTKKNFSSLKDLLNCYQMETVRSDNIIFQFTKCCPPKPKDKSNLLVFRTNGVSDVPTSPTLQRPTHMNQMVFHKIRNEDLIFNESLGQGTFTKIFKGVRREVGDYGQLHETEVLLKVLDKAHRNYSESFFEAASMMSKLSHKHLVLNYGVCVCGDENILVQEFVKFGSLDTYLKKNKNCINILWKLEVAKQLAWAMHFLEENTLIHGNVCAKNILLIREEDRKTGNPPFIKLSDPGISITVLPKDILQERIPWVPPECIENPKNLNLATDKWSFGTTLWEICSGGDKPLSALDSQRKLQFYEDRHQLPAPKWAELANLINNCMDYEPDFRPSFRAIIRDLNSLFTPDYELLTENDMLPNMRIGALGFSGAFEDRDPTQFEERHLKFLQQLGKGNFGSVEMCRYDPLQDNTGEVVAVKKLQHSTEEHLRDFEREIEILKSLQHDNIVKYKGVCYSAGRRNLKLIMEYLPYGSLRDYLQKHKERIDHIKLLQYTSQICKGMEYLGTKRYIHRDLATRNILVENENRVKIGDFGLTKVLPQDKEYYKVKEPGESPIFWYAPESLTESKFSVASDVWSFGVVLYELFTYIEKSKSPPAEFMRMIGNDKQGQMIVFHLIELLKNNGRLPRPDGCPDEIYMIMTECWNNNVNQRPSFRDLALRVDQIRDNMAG

[5] = target: Serine/threonine-protein kinase PLK1 (Homo sapiens, UniProt P53350); experiment: Inhibition of PLK1
Serine/threonine-protein kinase PLK1, sequence (P53350 whole entry): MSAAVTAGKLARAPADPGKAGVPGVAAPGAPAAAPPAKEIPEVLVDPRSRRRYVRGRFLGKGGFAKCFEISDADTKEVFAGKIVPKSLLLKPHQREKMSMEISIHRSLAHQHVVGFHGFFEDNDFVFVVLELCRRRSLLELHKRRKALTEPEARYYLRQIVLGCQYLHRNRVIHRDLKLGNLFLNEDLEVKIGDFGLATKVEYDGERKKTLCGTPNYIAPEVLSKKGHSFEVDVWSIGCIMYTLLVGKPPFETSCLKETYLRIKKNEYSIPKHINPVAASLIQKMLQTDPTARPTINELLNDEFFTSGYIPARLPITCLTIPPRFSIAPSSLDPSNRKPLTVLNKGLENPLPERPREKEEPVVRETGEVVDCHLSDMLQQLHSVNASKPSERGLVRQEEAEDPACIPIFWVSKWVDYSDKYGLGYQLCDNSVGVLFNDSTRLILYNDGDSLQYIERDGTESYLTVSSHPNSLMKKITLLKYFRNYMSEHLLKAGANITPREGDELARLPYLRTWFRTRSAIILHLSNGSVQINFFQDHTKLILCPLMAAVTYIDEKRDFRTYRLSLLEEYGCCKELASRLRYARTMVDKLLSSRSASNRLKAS

[6] = target: Vascular endothelial growth factor receptor 2 (Homo sapiens, UniProt P35968); experiment: Inhibition of KDR
Vascular endothelial growth factor receptor 2, sequence (P35968 whole entry): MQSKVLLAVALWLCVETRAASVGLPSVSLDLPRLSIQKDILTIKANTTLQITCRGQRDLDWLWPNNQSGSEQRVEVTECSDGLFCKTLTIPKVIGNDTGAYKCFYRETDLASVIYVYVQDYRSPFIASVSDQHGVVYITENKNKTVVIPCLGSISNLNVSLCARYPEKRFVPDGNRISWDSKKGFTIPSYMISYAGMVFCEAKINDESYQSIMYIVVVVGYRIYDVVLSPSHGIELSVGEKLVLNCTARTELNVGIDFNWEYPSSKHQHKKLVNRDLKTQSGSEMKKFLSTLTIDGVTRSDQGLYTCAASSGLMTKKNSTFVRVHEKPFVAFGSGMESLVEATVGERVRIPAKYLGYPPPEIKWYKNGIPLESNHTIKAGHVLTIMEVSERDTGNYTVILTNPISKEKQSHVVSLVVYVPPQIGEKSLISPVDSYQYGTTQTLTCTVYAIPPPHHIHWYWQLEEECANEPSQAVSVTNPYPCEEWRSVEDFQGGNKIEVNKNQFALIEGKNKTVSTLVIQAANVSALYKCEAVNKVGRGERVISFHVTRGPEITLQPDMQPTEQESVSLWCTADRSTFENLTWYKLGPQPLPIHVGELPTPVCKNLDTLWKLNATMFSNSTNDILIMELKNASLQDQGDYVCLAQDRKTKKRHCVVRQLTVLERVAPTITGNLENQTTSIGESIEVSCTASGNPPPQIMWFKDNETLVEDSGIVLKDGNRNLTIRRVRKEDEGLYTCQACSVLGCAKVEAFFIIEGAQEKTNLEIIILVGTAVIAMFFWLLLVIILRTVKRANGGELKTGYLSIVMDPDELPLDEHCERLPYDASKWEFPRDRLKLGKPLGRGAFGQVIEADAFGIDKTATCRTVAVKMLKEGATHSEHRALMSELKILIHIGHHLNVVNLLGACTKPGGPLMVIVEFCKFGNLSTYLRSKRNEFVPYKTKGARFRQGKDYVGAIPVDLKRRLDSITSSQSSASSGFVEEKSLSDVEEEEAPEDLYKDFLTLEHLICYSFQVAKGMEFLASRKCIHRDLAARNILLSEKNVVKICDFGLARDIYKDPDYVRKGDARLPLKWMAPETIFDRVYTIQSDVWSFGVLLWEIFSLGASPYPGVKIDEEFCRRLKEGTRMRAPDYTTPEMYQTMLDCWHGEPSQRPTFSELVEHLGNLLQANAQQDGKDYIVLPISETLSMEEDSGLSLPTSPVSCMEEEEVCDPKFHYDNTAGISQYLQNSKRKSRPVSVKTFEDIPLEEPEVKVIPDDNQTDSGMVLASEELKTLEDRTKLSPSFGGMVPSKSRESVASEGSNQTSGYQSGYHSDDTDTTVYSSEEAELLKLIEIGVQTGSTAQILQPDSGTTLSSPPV

[7] = target: Rho-associated protein kinase 1 (Homo sapiens, UniProt Q13464); experiment: Inhibition of ROCK1
Rho-associated protein kinase 1, sequence (Q13464 whole entry): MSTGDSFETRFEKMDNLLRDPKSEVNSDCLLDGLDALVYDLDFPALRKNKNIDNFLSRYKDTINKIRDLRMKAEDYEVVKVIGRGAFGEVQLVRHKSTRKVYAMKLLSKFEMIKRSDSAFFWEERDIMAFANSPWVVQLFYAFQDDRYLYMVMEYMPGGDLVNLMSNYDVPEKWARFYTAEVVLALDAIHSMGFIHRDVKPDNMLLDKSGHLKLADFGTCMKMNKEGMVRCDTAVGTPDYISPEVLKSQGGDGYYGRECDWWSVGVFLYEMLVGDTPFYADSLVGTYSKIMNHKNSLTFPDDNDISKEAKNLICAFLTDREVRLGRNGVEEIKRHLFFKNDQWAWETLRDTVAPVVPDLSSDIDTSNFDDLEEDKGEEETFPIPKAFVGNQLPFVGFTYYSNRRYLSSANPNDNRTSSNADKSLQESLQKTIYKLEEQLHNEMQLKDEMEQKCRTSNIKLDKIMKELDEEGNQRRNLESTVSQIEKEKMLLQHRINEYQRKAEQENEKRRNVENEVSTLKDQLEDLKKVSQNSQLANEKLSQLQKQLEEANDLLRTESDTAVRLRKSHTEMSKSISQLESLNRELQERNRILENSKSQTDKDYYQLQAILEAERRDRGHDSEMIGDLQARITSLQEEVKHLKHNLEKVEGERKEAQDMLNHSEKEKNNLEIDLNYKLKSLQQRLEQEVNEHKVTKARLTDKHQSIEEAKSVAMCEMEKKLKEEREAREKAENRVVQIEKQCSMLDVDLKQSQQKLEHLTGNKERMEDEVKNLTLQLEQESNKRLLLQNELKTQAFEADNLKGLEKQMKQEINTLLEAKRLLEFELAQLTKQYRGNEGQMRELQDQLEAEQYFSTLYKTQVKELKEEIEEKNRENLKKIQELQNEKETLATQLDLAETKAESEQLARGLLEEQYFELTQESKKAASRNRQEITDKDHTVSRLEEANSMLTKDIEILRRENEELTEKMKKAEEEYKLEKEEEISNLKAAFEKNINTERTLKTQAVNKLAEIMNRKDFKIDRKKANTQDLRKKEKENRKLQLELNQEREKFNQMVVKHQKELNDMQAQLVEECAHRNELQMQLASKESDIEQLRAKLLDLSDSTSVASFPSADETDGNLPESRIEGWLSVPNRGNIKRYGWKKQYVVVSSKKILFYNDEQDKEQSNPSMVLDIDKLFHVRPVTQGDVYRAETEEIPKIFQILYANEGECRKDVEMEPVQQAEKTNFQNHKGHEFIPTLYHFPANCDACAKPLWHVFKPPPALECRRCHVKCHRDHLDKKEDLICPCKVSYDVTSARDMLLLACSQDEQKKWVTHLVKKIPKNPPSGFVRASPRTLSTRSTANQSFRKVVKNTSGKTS

[8] = target: Mitogen-activated protein kinase 10 (Homo sapiens, UniProt P53779); experiment: Inhibition of JNK3
[9] = target: Cyclin-dependent kinase 2 (Homo sapiens, UniProt P24941)
[10] = target: T1, Receptor-type tyrosine-protein kinase FLT3 (Homo sapiens, UniProt P36888); experiment: Inhibition of FLT3
T1 sequence (P36888 whole entry): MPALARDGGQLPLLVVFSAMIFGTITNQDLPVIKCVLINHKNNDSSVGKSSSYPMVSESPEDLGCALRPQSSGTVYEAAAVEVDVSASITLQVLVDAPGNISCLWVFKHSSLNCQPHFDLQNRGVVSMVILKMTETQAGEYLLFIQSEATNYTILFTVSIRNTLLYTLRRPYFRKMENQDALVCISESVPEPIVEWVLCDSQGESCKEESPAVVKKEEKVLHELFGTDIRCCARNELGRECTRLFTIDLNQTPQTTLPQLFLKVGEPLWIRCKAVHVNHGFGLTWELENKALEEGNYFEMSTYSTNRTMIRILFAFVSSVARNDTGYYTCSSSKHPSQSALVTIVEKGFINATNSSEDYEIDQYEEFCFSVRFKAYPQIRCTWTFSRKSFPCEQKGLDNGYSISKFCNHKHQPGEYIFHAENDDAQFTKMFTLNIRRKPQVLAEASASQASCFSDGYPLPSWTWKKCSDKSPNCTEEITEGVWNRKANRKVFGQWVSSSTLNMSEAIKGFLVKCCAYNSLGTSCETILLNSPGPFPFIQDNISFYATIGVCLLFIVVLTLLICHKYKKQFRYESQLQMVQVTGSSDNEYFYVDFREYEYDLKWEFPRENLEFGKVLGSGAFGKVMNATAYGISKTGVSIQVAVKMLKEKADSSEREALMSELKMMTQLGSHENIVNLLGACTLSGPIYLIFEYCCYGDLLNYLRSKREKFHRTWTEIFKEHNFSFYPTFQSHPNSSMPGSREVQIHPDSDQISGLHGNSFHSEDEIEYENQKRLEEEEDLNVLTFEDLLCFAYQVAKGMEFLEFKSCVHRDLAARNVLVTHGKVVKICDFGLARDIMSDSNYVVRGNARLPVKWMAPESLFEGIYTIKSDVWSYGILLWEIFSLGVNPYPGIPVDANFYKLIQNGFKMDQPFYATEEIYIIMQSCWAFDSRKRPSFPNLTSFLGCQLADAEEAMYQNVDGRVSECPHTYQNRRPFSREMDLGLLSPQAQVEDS

[11] = target: Hepatocyte growth factor receptor (Homo sapiens, UniProt P08581)
[12] = target: T2, Interleukin-1 receptor-associated kinase 4 (Homo sapiens, UniProt Q9NWZ3); experiment: Inhibition of IRAK4
T2 sequence (Q9NWZ3 whole entry): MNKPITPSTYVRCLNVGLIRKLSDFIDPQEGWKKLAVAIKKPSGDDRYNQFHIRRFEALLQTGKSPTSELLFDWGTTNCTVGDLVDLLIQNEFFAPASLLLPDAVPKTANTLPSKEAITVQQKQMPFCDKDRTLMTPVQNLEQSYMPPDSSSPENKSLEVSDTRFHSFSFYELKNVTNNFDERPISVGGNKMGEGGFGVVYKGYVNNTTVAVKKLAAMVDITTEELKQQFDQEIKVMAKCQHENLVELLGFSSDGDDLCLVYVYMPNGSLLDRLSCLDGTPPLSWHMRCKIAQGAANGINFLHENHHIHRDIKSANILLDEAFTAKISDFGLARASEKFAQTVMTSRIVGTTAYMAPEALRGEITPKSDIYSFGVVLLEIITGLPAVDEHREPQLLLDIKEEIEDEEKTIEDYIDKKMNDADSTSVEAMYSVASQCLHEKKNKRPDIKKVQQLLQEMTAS

[13] = target: Phosphatidylinositol 4,5-bisphosphate 3-kinase catalytic subunit gamma isoform (Homo sapiens, UniProt P48736); experiment: Inhibition of PI3Kgamma
[14] = target: Tyrosine-protein kinase SYK (Homo sapiens, UniProt P43405)

Glycogen synthase kinase-3 beta, sequence (P49841 whole entry): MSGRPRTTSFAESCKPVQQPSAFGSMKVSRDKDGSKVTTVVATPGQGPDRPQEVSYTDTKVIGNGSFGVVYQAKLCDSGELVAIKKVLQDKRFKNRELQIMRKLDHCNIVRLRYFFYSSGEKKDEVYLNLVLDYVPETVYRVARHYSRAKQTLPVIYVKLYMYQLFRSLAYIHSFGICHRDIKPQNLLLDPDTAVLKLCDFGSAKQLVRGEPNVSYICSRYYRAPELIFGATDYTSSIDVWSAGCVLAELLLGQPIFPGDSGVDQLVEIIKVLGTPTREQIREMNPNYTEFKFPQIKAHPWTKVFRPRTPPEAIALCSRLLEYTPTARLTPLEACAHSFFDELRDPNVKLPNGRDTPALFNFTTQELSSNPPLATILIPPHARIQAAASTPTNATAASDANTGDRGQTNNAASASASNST

Ki [1] | Structure (SMILES) | further results
< 2 nM | COc1ccc(C2=NNC(=O)/C2=N/Nc2ccc(Cl)cc2)cc1OC | 
110 nM | COc1ccc(C2=NNC(=O)/C2=N\Nc2ccc(N(C)C)cc2)cc1 | 
9 nM | COc1cccc(C2=NNC(=O)/C2=N\Nc2ccc(Cl)cc2)c1 | 
2 nM | COc1ccc(N/N=C2\C(=O)NN=C2c2cnccc2OC)cc1 | 
8 nM | COc1cccc(C2=NNC(=O)/C2=N\Nc2cccc(Cl)c2)c1 | 
8 nM | COc1cccc(C2=NNC(=O)/C2=N\Nc2ccccn2)c1 | 
< 2 nM | COc1ccc(C2=NNC(=O)/C2=N\Nc2ccc(C#N)cc2)cc1 | 
> 4000 nM | COc1ccccc1N/N=C1\C(=O)NN=C1c1ccccc1 | 
99 nM | O=C1NN=C(c2ccccc2)/C1=N/Nc1ccccc1 | 
650 nM | O=C1NN=C(c2ccccn2)/C1=N/Nc1ccccc1Cl | 
87 nM | COc1ccc(C2=NNC(=O)/C2=N\Nc2ccc(N(C)C)cc2)cc1OC | 
2 nM | COc1ccc(C2=NNC(=O)/C2=N\Nc2ccc(Cl)cc2)cc1 | 
3 nM | COc1ccncc1C1=NNC(=O)/C1=N\Nc1ccc(Cl)cc1 | 
2 nM | CCN(CC)c1ccc(N/N=C2\C(=O)NN=C2c2ccc(OC)c(OC)c2)cc1 | 
1490 nM | O=C1NN=C/C1=N/Nc1ccccc1Cl | 
< 2 nM | COc1ccc(C2=NNC(=O)/C2=N\Nc2ccc(C#N)cc2)cc1OC | 
16 nM | CCN(CC)c1ccc(N/N=C2\C(=O)NN=C2c2ccc(OC)cc2)cc1 | 
8.3 nM | COc1ccncc1C1=NNC(=O)/C1=N\Nc1ccc(C#N)cc1 | 
2 nM | COc1ccc(N/N=C2\C(=O)NN=C2c2ccc(OC)cc2)cc1 | 

Ki [1] | Structure (SMILES) | further results
4 nM | COc1cccc(C2=NNC(=O)/C2=N\Nc2ccc(C#N)cc2)c1 | 
3.7 nM | COc1cccc(N/N=C2\C(=O)NN=C2c2cnccc2OC)c1 | 
30 nM | COc1cccc(C2=NNC(=O)/C2=N\Nc2cccnc2)c1 | 
< 2 nM | COc1ccc(N/N=C2\C(=O)NN=C2c2ccc(OC)c(OC)c2)cc1 | 
18 nM | COc1ccc(N/N=C2\C(=O)NN=C2c2cccc(OC)c2)cc1 | 
35 nM | COc1cccc(N/N=C2\C(=O)NN=C2c2ccccc2)c1 | 
460 nM | CC1=NNC(=O)/C1=N\Nc1ccccc1Cl | 
0.8 nM | COc1ccc(C2=NNC(=O)/C2=N\Nc2cccc(OC)c2)cc1 | Ki [2]: > 4000 nM; Ki [3]: > 4000 nM; Ki [4]: > 1600 nM; Ki [5]: > 4000 nM; Ki [6]: 1800 nM; Ki [7]: > 4000 nM; Ki [8]: > 4000 nM; Ki [9]: 95 nM; Ki [10]: 66 nM; Ki [11]: > 4000 nM
50 nM | COc1ccncc1C1=NNC(=O)/C1=N\Nc1ccc(N2CCOCC2)cc1 | 
3 nM | COc1ccc(C2=NNC(=O)/C2=N\Nc2ccc(N3CCOCC3)cc2)cc1OC | 
< 3.5 nM | COc1ccc(C2=NNC(=O)/C2=N\Nc2cccnc2)cc1OC | 
59 nM | COc1cccc(C2=NNC(=O)/C2=N\Nc2ccc(N3CCOCC3)cc2)c1 | 
120 nM | O=C1NN=C(c2ccccc2)/C1=N/Nc1cccc(Cl)c1 | 
5 nM | COc1cccc(N/N=C2\C(=O)NN=C2c2cccc(OC)c2)c1 | 
640 nM | COc1ccc(N/N=C2\C(=O)NN=C2c2ccccn2)cc1 | 
14 nM | COc1ccc(C2=NNC(=O)/C2=N\Nc2ccncc2)cc1 | 
6.5 nM | COc1cccc(C2=NNC(=O)/C2=N\Nc2ccc(C(=O)O)cc2)c1 | 
850 nM | COc1cccc(C2=NNC(=O)/C2=N\Nc2ccccc2Cl)c1 | 
< 3.5 nM | COc1ccc(C2=NNC(=O)/C2=N\Nc2ccccc2)cc1OC | 

Ki [1] | Structure (SMILES) | further results
720 nM | O=C1NN=C(c2ccccc2)/C1=N/Nc1ccccc1Cl | 
8 nM | COc1ccc(C2=NNC(=O)/C2=N\Nc2ccc(N3CCOCC3)cc2)cc1 | 
> 3700 nM | CC(C)C1=NNC(=O)/C1=N\Nc1ccccc1Cl | 
9 nM | COc1ccc(N/N=C2\C(=O)NN=C2c2cc(OC)c(OC)c(OC)c2)cc1 | 
39 nM | COc1cccc(C2=NNC(=O)/C2=N\Nc2ccccc2)c1 | 
44 nM | COc1ccc(C2=NNC(=O)/C2=N\Nc2ccccc2Cl)cc1OC | 
9 nM | COc1cccc(C2=NNC(=O)/C2=N\Nc2ccc(N(C)C)cc2)c1 | 
7.7 nM | COc1ccncc1C1=NNC(=O)/C1=N\Nc1ccc(C(=O)O)cc1 | 
2 nM | COc1ccc(C2=NNC(=O)/C2=N\Nc2cccnc2)cc1 | Ki [2]: > 4000 nM; Ki [3]: > 4000 nM; Ki [4]: > 4000 nM; Ki [5]: > 4000 nM; Ki [12]: 1500 nM; Ki [6]: 3400 nM; Ki [7]: > 4000 nM; Ki [8]: > 4000 nM; Ki [9]: 62 nM; Ki [10]: 130 nM; Ki [11]: > 4000 nM
1.9 nM | COc1ccc(C2=NNC(=O)/C2=N\Nc2cccc(Cl)c2)cc1 | 
30 nM | COc1ccc(N/N=C2\C(=O)NN=C2c2ccncc2)cc1 | 
23 nM | O=C1NN=C(c2ccccc2)/C1=N/Nc1ccc(Cl)cc1 | 
23 nM | COc1cccc(C2=NNC(=O)/C2=N\Nc2ccncc2)c1 | 
0.4 nM | COc1cccc(N/N=C2\C(=O)NN=C2c2ccc(OC)c(OC)c2)c1 | 
270 nM | COc1ccccc1N/N=C1\C(=O)NN=C1c1cnccc1OC | 
0.4 nM | COc1ccc(C2=NNC(=O)/C2=N\Nc2cccc(Cl)c2)cc1OC | 
< 3.5 nM | COc1ccc(C2=NNC(=O)/C2=N\Nc2ccncc2)cc1OC | 
250 nM | O=C1NN=C(c2ccncc2)/C1=N/Nc1ccccc1Cl | 

Structure (SMILES) | Ki [1] | further results
COc1ccncc1C1=NNC(=O)/C1=N\Nc1ccncc1 | 16 nM | 
O=C1NN=C(c2cccnc2)/C1=N/Nc1ccccc1Cl | 200 nM | 
COc1ccncc1C1=NNC(=O)/C1=N\Nc1cccnc1 | 23 nM | 
COc1ccc(N/N=C2\C(=O)NN=C2c2cccnc2)cc1 | 20 nM | 
COc1ccncc1C1=NNC(=O)/C1=N\Nc1ccccc1 | 4.5 nM | Ki [2]: > 4000 nM; Ki [13]: 540 nM; Ki [3]: > 4000 nM; Ki [4]: 3500 nM; Ki [5]: > 4000 nM; Ki [12]: 1100 nM; Ki [6]: 1000 nM; Ki [7]: > 4000 nM; Ki [14]: 1800 nM; Ki [8]: 2500 nM; Ki [10]: 290 nM
